# Biological target: T1, Alpha-2A adrenergic receptor (Homo sapiens, UniProt P08913); also: in other assays of this panel Not Active means under 50% inhibition at 10 µM
# T1 sequence (P08913 whole entry): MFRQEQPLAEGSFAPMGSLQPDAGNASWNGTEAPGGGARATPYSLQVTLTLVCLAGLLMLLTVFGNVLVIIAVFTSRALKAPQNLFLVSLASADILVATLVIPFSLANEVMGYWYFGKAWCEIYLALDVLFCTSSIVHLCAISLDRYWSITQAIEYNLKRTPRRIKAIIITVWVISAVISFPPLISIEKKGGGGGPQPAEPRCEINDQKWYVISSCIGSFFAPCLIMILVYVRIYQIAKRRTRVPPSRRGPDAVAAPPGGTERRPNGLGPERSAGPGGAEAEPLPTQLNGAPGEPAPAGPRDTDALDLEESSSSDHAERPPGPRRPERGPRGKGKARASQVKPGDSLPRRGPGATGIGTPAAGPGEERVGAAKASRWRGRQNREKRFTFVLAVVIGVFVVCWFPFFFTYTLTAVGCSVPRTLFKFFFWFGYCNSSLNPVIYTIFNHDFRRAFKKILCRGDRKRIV
# Assay: not given
# Assay type: cell membranes, Sf9, Membrane
# Details: sf9
row,SMILES,IC50
1,COc1cc(C(=O)NC2CCCNC2)cc(OC)c1OC (stereo not drawn) [TROXIPIDE],Not Active
2,CC1(C)[C@H]2CC[C@]1(C)C(=O)C2 [(-)-CAMPHOR],Not Active
3,NNc1ccccc1 [PHENYLHYDRAZINE],Not Active

# Biological target: Beta-2 adrenergic receptor (Homo sapiens, UniProt P07550)
# Sequence (P07550 whole entry): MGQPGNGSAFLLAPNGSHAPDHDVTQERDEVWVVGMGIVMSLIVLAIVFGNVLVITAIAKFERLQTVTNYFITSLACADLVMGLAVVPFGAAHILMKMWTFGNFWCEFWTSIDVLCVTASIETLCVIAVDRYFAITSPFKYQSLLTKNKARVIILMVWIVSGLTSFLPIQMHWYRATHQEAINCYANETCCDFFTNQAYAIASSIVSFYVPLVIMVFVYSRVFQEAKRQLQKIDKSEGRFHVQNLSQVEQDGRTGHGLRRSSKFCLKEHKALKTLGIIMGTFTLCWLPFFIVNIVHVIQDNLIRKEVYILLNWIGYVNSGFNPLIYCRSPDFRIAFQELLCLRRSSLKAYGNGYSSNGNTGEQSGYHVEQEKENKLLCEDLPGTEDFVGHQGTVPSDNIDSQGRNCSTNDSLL
# Assay: DRUGMATRIX: Adrenergic beta2 radioligand binding (ligand: [3H] CGP-12177)
# Assay type: cell membranes, Membrane
# Details: cho; Not Active = under 50% inhibition at 10 µM
row,SMILES,IC50
1,COc1cc(C(=O)NC2CCCNC2)cc(OC)c1OC (stereo not drawn) [TROXIPIDE],Not Active
2,CC1(C)[C@H]2CC[C@]1(C)C(=O)C2 [(-)-CAMPHOR],Not Active
3,NNc1ccccc1 [PHENYLHYDRAZINE],Not Active

# Biological target: Aldo-keto reductase family 1 member B1 (Rattus norvegicus, UniProt P07943);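 also: inhibition of aldose reductase enzyme activity, measured with DL-glyceraldehyde as the substrate; in other assays of this panel Not Active means under 50% inhibition at 10 µM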
# Assay: not given
# Assay type: tissue-based, Lens of camera-type eye
# Details: not given
row,SMILES,IC50
1,COc1cc(C(=O)NC2CCCNC2)cc(OC)c1OC (stereo not drawn) [TROXIPIDE],Not Active
2,CC1(C)[C@H]2CC[C@]1(C)C(=O)C2 [(-)-CAMPHOR],Not Active
3,NNc1ccccc1 [PHENYLHYDRAZINE],Not Active

# System: not listed separately
# Assay: DRUGMATRIX: Atrial Natriuretic Factor (ANF) radioligand binding (ligand: [125I] ANF (rat))
# Assay type: cell membranes, Cavia porcellus, Dunkin-Hartley, Adrenal gland, Membrane
# Details: Not Active = under 50% inhibition at 10 µM
SMILES,IC50,Ki
COc1cc(C(=O)NC2CCCNC2)cc(OC)c1OC (stereo not drawn) [TROXIPIDE],Not Active,Not Active
CC1(C)[C@H]2CC[C@]1(C)C(=O)C2 [(-)-CAMPHOR],Not Active,Not Active
NNc1ccccc1 [PHENYLHYDRAZINE],Not Active,Not Active

# System: not listed separately
# Assay: DRUGMATRIX: beta-Lactamase enzyme inhibition (substrate: Nitrocefin)
# Design: species or system Bacillus cereus
# Details: Not Active = under 50% inhibition at 10 µM
SMILES,IC50,Ki
COc1cc(C(=O)NC2CCCNC2)cc(OC)c1OC (stereo not drawn) [TROXIPIDE],Not Active,Not Active
CC1(C)[C@H]2CC[C@]1(C)C(=O)C2 [(-)-CAMPHOR],Not Active,Not Active
NNc1ccccc1 [PHENYLHYDRAZINE],Not Active,Not Active

# System: not listed separately
# Assay: DRUGMATRIX: Calcium Channel Type L, Dihydropyridine radioligand binding (ligand: [3H] Nitrendipine)
# Assay type: cell membranes, Rattus norvegicus, Wistar, Cerebral cortex, Membrane
# Details: Not Active = under 50% inhibition at 10 µM
SMILES,IC50,Ki
COc1cc(C(=O)NC2CCCNC2)cc(OC)c1OC (stereo not drawn) [TROXIPIDE],Not Active,Not Active
CC1(C)[C@H]2CC[C@]1(C)C(=O)C2 [(-)-CAMPHOR],Not Active,Not Active
NNc1ccccc1 [PHENYLHYDRAZINE],Not Active,Not Active

# Biological target: 5-hydroxytryptamine receptor 2B (Homo sapiens, UniProt P41595); also: in other assays of this panel Not Active means under 50% inhibition at 10 µM
# Sequence (P41595 whole entry): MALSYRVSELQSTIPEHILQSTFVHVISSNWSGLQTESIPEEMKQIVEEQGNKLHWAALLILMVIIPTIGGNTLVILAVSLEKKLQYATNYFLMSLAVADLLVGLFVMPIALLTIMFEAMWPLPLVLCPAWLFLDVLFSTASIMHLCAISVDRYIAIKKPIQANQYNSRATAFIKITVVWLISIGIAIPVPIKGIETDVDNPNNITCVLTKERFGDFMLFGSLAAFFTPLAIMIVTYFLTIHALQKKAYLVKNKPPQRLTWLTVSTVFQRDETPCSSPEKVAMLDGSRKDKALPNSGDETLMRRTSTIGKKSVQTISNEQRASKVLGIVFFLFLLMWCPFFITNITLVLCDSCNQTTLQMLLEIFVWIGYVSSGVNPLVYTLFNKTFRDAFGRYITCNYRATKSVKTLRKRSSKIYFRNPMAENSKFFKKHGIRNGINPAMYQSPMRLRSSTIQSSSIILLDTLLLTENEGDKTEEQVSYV
# Assay: not given
# Assay type: cell membranes, CHO-K1, Membrane
# Details: cho-k1
row,SMILES,IC50
1,COc1cc(C(=O)NC2CCCNC2)cc(OC)c1OC (stereo not drawn) [TROXIPIDE],Not Active
2,CC1(C)[C@H]2CC[C@]1(C)C(=O)C2 [(-)-CAMPHOR],Not Active
3,NNc1ccccc1 [PHENYLHYDRAZINE],Not Active

# Biological target: Substance-P receptor (Homo sapiens, UniProt P25103); also: in other assays of this panel Not Active means under 50% inhibition at 10 µM
# Sequence (P25103 whole entry): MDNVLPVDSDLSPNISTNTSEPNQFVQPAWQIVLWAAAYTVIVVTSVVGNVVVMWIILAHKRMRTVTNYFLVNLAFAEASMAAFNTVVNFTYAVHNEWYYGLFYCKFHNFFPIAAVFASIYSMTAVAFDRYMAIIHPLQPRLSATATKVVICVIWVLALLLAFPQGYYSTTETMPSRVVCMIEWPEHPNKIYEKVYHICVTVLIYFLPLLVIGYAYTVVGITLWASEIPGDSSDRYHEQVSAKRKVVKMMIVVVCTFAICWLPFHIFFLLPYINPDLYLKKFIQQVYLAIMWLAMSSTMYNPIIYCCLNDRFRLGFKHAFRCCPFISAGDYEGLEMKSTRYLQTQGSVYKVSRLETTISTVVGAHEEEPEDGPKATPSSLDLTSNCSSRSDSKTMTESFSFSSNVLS
# Assay: not given
# Assay type: cell membranes, CHO, Membrane
# Details: cho
row,SMILES,IC50
1,COc1cc(C(=O)NC2CCCNC2)cc(OC)c1OC (stereo not drawn) [TROXIPIDE],Not Active
2,CC1(C)[C@H]2CC[C@]1(C)C(=O)C2 [(-)-CAMPHOR],Not Active
3,NNc1ccccc1 [PHENYLHYDRAZINE],Not Active

# Biological target: Vascular endothelial growth factor receptor 1 (Homo sapiens, UniProt P17948); also: in other assays of this panel Not Active means under 50% inhibition at 10 µM
# Sequence (P17948 whole entry): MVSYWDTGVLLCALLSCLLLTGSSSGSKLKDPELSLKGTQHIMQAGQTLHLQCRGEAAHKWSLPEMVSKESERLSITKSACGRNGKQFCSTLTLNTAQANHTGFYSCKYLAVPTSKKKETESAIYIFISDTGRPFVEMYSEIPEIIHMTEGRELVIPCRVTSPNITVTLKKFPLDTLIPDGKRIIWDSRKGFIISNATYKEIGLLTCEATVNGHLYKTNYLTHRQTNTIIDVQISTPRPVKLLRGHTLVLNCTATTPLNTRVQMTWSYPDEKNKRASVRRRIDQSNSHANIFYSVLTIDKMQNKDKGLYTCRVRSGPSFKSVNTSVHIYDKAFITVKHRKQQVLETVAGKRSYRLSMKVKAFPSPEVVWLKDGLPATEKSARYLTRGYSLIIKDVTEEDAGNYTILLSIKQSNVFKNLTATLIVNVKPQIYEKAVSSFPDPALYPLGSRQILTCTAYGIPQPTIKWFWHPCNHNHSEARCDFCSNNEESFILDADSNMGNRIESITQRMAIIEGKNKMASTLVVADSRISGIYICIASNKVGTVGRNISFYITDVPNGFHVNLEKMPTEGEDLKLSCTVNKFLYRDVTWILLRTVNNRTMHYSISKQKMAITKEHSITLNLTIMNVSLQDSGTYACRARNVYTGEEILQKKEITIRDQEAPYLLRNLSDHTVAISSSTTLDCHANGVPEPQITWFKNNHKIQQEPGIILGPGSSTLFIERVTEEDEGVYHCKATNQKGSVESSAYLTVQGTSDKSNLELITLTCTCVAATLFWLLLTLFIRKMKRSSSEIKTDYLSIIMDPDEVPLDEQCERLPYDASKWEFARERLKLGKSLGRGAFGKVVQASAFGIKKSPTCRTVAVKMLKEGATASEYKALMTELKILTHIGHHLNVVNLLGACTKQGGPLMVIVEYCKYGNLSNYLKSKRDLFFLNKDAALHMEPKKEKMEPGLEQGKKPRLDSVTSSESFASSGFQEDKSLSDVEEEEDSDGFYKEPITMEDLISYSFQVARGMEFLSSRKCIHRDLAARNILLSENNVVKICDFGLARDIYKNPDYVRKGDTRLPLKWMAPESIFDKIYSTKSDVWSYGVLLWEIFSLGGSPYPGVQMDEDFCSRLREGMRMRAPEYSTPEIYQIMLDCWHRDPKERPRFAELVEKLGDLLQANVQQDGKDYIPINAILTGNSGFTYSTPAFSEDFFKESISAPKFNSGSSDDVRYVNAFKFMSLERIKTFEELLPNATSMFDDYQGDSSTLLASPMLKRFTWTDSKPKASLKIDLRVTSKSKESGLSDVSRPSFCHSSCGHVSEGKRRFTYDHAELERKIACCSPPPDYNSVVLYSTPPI
# Assay: not given
# Assay type: cell-based
# Details: huvec
row,SMILES,IC50
1,COc1cc(C(=O)NC2CCCNC2)cc(OC)c1OC (stereo not drawn) [TROXIPIDE],Not Active
2,CC1(C)[C@H]2CC[C@]1(C)C(=O)C2 [(-)-CAMPHOR],Not Active
3,NNc1ccccc1 [PHENYLHYDRAZINE],Not Active

# Biological target: C-C chemokine receptor type 5 (Homo sapiens, UniProt P51681); also: in other assays of this panel Not Active means under 50% inhibition at 10 µM
# Sequence (P51681 whole entry): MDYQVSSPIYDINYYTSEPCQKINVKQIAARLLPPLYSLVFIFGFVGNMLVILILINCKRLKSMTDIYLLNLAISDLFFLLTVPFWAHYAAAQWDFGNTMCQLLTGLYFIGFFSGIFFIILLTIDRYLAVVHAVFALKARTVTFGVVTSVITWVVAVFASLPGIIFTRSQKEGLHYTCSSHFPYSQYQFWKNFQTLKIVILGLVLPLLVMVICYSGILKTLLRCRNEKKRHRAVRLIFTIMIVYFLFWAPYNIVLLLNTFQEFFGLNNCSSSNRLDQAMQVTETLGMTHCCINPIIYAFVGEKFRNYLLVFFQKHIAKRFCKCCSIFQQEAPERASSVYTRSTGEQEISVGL
# Assay: not given
# Assay type: cell membranes, Membrane
# Details: hek293
row,SMILES,IC50
1,COc1cc(C(=O)NC2CCCNC2)cc(OC)c1OC (stereo not drawn) [TROXIPIDE],Not Active
2,CC1(C)[C@H]2CC[C@]1(C)C(=O)C2 [(-)-CAMPHOR],Not Active
3,NNc1ccccc1 [PHENYLHYDRAZINE],Not Active

# Biological target: T2, Cholecystokinin receptor type A (Homo sapiens, UniProt P32238); also: in other assays of this panel Not Active means under 50% inhibition at 10 µM
# T2 sequence (P32238 whole entry): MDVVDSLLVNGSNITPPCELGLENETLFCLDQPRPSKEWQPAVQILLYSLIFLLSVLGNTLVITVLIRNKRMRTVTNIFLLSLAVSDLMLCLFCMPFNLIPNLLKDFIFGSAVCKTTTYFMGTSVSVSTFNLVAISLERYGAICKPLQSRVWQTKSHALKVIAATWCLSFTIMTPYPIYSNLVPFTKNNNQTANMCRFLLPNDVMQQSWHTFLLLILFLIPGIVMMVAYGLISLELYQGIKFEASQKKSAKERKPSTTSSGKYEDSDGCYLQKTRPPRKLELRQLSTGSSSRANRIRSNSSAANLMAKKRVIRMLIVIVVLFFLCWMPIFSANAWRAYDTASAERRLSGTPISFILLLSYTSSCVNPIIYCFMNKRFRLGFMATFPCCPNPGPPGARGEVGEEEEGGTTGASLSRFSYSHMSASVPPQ
# Assay: not given
# Assay type: cell membranes, Membrane
# Details: 1321-n1
row,SMILES,IC50
1,COc1cc(C(=O)NC2CCCNC2)cc(OC)c1OC (stereo not drawn) [TROXIPIDE],Not Active
2,CC1(C)[C@H]2CC[C@]1(C)C(=O)C2 [(-)-CAMPHOR],Not Active
3,NNc1ccccc1 [PHENYLHYDRAZINE],Not Active

# Biological target: D(1A) dopamine receptor (Homo sapiens, UniProt P21728)
# Sequence (P21728 whole entry): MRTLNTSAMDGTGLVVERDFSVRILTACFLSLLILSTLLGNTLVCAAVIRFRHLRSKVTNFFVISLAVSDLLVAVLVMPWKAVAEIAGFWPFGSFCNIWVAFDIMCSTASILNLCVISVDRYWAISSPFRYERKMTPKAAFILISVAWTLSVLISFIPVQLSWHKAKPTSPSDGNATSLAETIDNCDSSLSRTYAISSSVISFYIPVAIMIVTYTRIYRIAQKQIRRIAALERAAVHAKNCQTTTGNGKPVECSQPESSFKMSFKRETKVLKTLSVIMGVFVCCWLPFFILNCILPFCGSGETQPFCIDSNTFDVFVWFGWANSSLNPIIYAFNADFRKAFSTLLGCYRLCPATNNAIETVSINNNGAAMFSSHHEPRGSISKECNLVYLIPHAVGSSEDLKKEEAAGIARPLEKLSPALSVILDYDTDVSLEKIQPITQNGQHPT
# Assay: DRUGMATRIX: Dopamine D1 radioligand binding (ligand: [3H] SCH-23390)
# Assay type: cell membranes, CHO, Membrane
# Details: cho; Not Active = under 50% inhibition at 10 µM
row,SMILES,IC50
1,COc1cc(C(=O)NC2CCCNC2)cc(OC)c1OC (stereo not drawn) [TROXIPIDE],Not Active
2,CC1(C)[C@H]2CC[C@]1(C)C(=O)C2 [(-)-CAMPHOR],Not Active
3,NNc1ccccc1 [PHENYLHYDRAZINE],Not Active

# Biological target: D(3) dopamine receptor (Homo sapiens, UniProt P35462)
# Sequence (P35462 whole entry): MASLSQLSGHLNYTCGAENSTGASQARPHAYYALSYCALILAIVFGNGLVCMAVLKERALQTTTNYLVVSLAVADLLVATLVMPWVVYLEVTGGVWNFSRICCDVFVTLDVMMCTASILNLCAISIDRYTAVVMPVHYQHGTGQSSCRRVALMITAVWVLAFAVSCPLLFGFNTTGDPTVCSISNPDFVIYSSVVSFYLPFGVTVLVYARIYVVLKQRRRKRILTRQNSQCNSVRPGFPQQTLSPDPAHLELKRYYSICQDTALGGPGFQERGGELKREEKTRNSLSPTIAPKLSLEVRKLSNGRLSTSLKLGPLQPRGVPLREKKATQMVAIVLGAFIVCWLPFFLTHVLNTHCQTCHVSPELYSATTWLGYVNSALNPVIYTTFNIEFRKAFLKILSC
# Assay: DRUGMATRIX: Dopamine D3 radioligand binding (ligand: [3H] Spiperone)
# Assay type: cell membranes, CHO, Membrane
# Details: cho
row,SMILES,IC50
1,COc1cc(C(=O)NC2CCCNC2)cc(OC)c1OC (stereo not drawn) [TROXIPIDE],Not Active
2,CC1(C)[C@H]2CC[C@]1(C)C(=O)C2 [(-)-CAMPHOR],Not Active
3,NNc1ccccc1 [PHENYLHYDRAZINE],Not Active

# System: not listed separately
# Assay: DRUGMATRIX: Glutamate, AMPA radioligand binding (ligand: [3H] AMPA)
# Assay type: cell membranes, Rattus norvegicus, Wistar, Cerebral cortex, Membrane
# Details: Not Active = under 50% inhibition at 10 µM
SMILES,IC50,Ki
COc1cc(C(=O)NC2CCCNC2)cc(OC)c1OC (stereo not drawn) [TROXIPIDE],Not Active,Not Active
CC1(C)[C@H]2CC[C@]1(C)C(=O)C2 [(-)-CAMPHOR],Not Active,Not Active
NNc1ccccc1 [PHENYLHYDRAZINE],Not Active,Not Active

# Biological target: T3, Polyunsaturated fatty acid lipoxygenase ALOX15 (Oryctolagus cuniculus, UniProt P12530)
# T3 sequence (P12530 whole entry): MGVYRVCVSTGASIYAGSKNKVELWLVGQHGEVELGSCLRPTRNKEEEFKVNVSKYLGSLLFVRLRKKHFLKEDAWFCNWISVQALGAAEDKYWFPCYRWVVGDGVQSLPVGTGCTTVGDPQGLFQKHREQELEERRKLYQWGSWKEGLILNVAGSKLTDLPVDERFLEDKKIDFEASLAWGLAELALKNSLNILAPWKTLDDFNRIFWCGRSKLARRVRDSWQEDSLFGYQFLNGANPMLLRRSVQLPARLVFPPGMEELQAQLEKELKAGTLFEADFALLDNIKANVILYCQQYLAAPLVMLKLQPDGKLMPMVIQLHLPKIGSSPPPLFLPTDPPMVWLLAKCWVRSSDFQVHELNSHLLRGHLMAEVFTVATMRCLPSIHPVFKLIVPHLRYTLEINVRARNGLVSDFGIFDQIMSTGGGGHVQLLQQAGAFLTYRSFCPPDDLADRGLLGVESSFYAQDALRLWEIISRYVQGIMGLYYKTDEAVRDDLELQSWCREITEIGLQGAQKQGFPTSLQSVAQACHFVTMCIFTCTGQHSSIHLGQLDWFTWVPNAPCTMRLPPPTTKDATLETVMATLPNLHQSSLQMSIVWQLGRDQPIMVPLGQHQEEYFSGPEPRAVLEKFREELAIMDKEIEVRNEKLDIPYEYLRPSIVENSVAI
# Assay: biochemical
# Assay type: tissue-based, Reticulocytes
# Details: read-out: IC50
row,SMILES,IC50 [nM]
1,NNc1ccccc1 [PHENYLHYDRAZINE],1670

# Same assay, conditions: reticulocytes
row,SMILES,IC50
1,COc1cc(C(=O)NC2CCCNC2)cc(OC)c1OC (stereo not drawn) [TROXIPIDE],Not Active
2,CC1(C)[C@H]2CC[C@]1(C)C(=O)C2 [(-)-CAMPHOR],Not Active

# Biological target: Mitogen-activated protein kinase 14 (Homo sapiens, UniProt Q16539)
# Sequence (Q16539 whole entry): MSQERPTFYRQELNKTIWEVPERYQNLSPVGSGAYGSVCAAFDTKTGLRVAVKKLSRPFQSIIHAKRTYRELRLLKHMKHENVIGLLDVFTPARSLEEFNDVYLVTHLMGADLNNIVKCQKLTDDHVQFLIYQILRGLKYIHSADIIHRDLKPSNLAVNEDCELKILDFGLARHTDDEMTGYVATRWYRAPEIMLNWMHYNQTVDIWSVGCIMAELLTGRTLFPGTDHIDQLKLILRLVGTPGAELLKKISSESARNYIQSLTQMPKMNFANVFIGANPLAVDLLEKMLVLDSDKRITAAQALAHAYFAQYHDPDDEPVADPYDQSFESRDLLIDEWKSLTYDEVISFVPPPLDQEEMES
# Assay: not given
# Design: species or system Escherichia coli
# Details: not given
row,SMILES,IC50
1,COc1cc(C(=O)NC2CCCNC2)cc(OC)c1OC (stereo not drawn) [TROXIPIDE],Not Active
2,CC1(C)[C@H]2CC[C@]1(C)C(=O)C2 [(-)-CAMPHOR],Not Active
3,NNc1ccccc1 [PHENYLHYDRAZINE],Not Active

# Biological target: T4, Adenosine receptor A1 (Homo sapiens, UniProt P30542)
# T4 sequence (P30542 whole entry): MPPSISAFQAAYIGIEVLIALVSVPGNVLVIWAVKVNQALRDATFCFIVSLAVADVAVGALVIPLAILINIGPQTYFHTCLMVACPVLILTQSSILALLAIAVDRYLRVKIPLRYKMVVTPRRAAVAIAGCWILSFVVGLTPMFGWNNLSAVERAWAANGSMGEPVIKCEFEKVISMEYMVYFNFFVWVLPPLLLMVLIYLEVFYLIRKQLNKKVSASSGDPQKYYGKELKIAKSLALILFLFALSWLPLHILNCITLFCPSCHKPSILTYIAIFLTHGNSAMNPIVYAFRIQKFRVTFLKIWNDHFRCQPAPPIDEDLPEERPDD
# Assay: not given
# Assay type: cell membranes, CHO, Membrane
# Details: cho
row,SMILES,IC50
1,COc1cc(C(=O)NC2CCCNC2)cc(OC)c1OC (stereo not drawn) [TROXIPIDE],Not Active
2,CC1(C)[C@H]2CC[C@]1(C)C(=O)C2 [(-)-CAMPHOR],Not Active
3,NNc1ccccc1 [PHENYLHYDRAZINE],Not Active
